Measured values as given in paper PMC10683025, “Discovery of a Hydroxylamine-Based Brain-Penetrant EGFR Inhibitor for Metastatic Non-Small-Cell Lung Cancer” (Journal of Medicinal Chemistry, 2023).
In brackets after ≈: the same amount, converted by molar mass. Where two headings read alike, the source gives them in different places.

Key:
[1] = target: T1, EGFRwt (Homo sapiens, UniProt P00533); experiment: KINOMEScan KdELECT Kd determination; format: binding; details: wt; read-out: EGFR Kd
T1 construct: purchased Eurofins DiscoverX (contract assay)
Description: (§3) In vitro kinase activity (inhibitor binding constants (Kd) and biochemical inhibition (IC50’s)) were assessed by Eurofins DiscoverX (Kd determinations) and Eurofins Cerep (biochemical IC50 determinations).

[2] = target: T2, EGFR del E746_A750 (Homo sapiens, UniProt P00533, DEL746-750); experiment: KINOMEScan KdELECT Kd determination; format: binding
T2 construct: purchased Eurofins DiscoverX (contract assay)
Description: as §3

[3] = target: T1, EGFRwt; experiment: KinaseProfiler enzymatic radiometric assay; format: biochemical; details: wt, ATP 10 μM; read-out: EGFR IC50
Description: as §3

[4] = tested on: HCC827 (EGFR mutation = exon19del); experiment: CellTiter-Glo cell viability assay; format: cell-based, human; details: Homo sapiens, HCC827; 72 h, unadjusted for FBS
Description: (§4) The NCI-H3255 cell line was obtained from CoBioer. […] NCI-H3255 cells were cultured in BEGM (Lonza) with 10% FBS. […] All cells were cultured in a humidified incubator with 5% CO2 at 37 °C.
(§5) Viability assays using A431, HCC827, NCI-H1975, NCI-H3255, Ba/F3 EGFR-del E746_A750/C797S, Ba/F3 EGFR-L858R/C797S, AU565, SK-BR-3, and ZR-75-30 cells were performed at Crown BioScience.

[5] = tested on: NCI-H3255 (EGFR mutation = L858R); experiment: CellTiter-Glo cell viability assay; format: cell-based, human; details: Homo sapiens, NCI-H3255; 72 h, unadjusted for FBS
Description: as §4, §5

[6] = Lipophilicity, shake-flask; format: physicochemical; details: 1-octanol/PBS; 1-octanol and PBS (pH 7.4); read-out: logD7.4
Description: Compound lipophilicity was determined by Pharmaron, Inc. using the shake-flask method with 1-octanol and PBS (pH 7.4). Each compound was assessed in duplicate (n = 2) at 1 μM in a 96-well plate shaken at 25 °C and 2000 rpm for 2 h. Samples were analyzed by liquid chromatography and tandem mass spectrometry (LC-MS/MS).

[7] = Solubility assay; format: physicochemical; details: buffer, pH 7.4, aqueous buffer; read-out: Aq. Sol.
Description: Solubility was determined by Pharmaron, Inc. and each compound was assessed in duplicate (n = 2) by adding 15 μL of compound stock solution (10 mM in DMSO) into a 96-well plate along with 485 μL of buffer followed by shaking at 25 °C, 1100 rpm for 2 h. Wells were filtered, and samples (5 μL) were taken followed by dilution with an equal volume of DMSO (5 μL) and 490 μL of aqueous solution. Samples were analyzed by LC-MS/MS.

[8] = Metabolic stability in liver microsomes; format: in vitro ADME, human; details: for Remaining Percentage: human LM
Description: (§6) Microsome stability was assessed in duplicate (n = 2) in the presence and absence of nicotinamide adenine dinucleotide phosphate (NADPH) with liver microsomes (0.5 mg/mL) from human (BD Gentest) and Sprague-Dawley rats (BD Gentest). Compounds were incubated in liver microsomes at 1 μM and samples (30 μL) were taken at 0.5, 15, 30, 45, and 60 min time points for analysis by LC-MS/MS. Hepatocyte stability was assessed in duplicate (n = 2) at a working cell density of 0.5 × 10^6 cells/mL with hepatocytes from human (BiolVT), Sprague-Dawley rat (BiolVT), cynomolgus monkey (RILD) or beagle dog (BiolVT). […] The in vitro half-life and intrinsic clearances were determined as previously described.[76]
(§7) In vitro half-life (in vitro t1/2) was determined from the slope value in [drawing 1] where k was determined by linear regression of the natural logarithm of the remaining percentage of the parent drug vs the incubation time curve.

[9] = Metabolic stability in liver microsomes; format: in vitro ADME, Sprague-Dawley rat; details: for Remaining Percentage: rat LM
Description: as §6, §7

[10] = Plasma stability; format: in vitro ADME, human; details: human plasma; for t1/2: ∞ = no degradation
Description: (§1) Assessment of compounds to determine stability in incubations containing plasma of human (Pharmaron) and Sprague-Dawley rat (IPHASE) was performed by Pharmaron, Inc. using the compound […] approach. Compounds were assessed in duplicate (n = 2) and incubated in plasma at 5 μM and samples (50 μL) were taken at 0, 15, 30, 60, and 120 min time points for analysis by LC-MS/MS. Peak area ratios were determined from the extracted ion chromatogram and the percent compound remaining at each time point was calculated by the following equation: [drawing 2] where peak area ratiot min is the peak area ratio of control and test compound at t min and peak area ratio0 min is the peak area ratio of control and test compound at zero time point.

[11] = Plasma stability; format: in vitro ADME, Sprague-Dawley rat; details: rat plasma; for t1/2: ∞ = no degradation
Description: as §1

[12] = Caco-2 permeability; format: in vitro ADME; details: human; for recovery at 2 h, 5 μM: Caco-2, Caco-2
[13] = tested on: Caco-2 cells; experiment: Caco-2 permeability; format: in vitro ADME; details: Caco-2
[14] = MDCKII-MDR1 permeability; format: in vitro ADME, canine; details: dog, MDCK-MDR1, MDCKII-MDR1
[15] = tested on: MDCKII-MDR1 cells; experiment: MDCKII-MDR1 permeability; format: in vitro ADME, canine; details: MDCKII-MDR1
[16] = tested on: MDR1; experiment: MDCKII-MDR1 permeability; format: in vitro ADME, canine; details: dog, MDCK-MDR1
[17] = Plasma protein binding by equilibrium dialysis; format: in vitro ADME
Description: (§2) Plasma protein binding and brain tissue binding were determined by Pharmaron, Inc. using the equilibrium dialysis method. […] Following incubation, the samples were analyzed by LC-MS/MS and the concentrations of the compounds were determined in the buffer and plasma solution chambers.

[18] = target: T3, EGFRL858R (Homo sapiens, UniProt P00533, L858R); experiment: KINOMEScan KdELECT Kd determination; format: binding; design: purchased Eurofins DiscoverX (contract assay)
Description: as §3

[19] = target: T3, EGFRL858R; experiment: KinaseProfiler enzymatic radiometric assay; format: biochemical; design: purchased Eurofins Cerep (KinaseProfiler, contract assay); details: ATP 10 μM, read-out: EGFR IC50
Description: as §3

[20] = Metabolic stability in hepatocytes; format: in vitro ADME, human; details: for Remaining Percentages: human hepatocytes
Description: as §6, §7

[21] = Metabolic stability in hepatocytes; format: in vitro ADME, Sprague-Dawley rat; details: rat hepatocytes
Description: as §6, §7

[22] = Plasma protein binding by equilibrium dialysis; format: in vitro ADME, mouse
Description: as §2

[23] = Brain tissue binding by equilibrium dialysis; format: in vitro ADME; details: rat
Description: as §2

[24] = design: method as in PMID 33028591; details: single oral dose of 10 mg/kg in Han Wistar rats ref 18; cited from earlier work
[25] = tested on: P-gp and BCRP; design: method as in ref 17−20; details: ref 17−20; cited from earlier work
[26] = cited from earlier work
[27] = human, human plasma, read-out: fu,plasma% / %Unbound (converted)
[28] = plasma, human, 5 μM, read-out: fu,plasma% / %Unbound (converted)
[29] = Sprague-Dawley, rat, rat plasma

T3 sequence (P00533 25-1210 L858R): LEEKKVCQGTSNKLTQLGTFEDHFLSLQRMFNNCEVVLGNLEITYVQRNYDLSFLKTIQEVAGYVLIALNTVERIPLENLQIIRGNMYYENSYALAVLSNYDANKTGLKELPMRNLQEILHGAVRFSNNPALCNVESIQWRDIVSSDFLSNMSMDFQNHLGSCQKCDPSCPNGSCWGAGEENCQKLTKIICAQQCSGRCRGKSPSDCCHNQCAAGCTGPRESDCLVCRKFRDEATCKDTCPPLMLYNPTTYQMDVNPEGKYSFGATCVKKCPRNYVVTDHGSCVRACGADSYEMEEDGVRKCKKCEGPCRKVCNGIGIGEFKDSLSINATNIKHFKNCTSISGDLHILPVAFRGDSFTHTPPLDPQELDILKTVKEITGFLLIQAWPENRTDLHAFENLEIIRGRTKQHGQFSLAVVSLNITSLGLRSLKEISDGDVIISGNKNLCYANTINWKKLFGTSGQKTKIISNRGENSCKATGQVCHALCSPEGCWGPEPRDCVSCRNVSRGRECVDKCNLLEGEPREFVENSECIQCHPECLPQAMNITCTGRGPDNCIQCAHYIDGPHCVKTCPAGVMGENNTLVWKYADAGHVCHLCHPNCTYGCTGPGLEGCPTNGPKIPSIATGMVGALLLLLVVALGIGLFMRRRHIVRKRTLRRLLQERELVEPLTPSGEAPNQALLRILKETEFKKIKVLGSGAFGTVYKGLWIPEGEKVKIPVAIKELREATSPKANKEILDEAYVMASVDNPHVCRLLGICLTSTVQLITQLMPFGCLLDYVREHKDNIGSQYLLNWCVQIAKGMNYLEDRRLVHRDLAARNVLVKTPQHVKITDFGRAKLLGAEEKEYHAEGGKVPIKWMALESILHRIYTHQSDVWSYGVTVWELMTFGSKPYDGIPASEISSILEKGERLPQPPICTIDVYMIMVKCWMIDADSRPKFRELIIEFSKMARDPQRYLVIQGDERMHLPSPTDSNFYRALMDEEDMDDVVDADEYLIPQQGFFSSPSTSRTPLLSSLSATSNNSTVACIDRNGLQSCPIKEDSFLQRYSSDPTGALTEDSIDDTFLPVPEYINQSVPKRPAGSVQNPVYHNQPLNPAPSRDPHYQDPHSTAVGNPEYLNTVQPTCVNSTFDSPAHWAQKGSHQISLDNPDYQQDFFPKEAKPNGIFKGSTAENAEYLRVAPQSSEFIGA
T1 sequence (P00533 25-1210): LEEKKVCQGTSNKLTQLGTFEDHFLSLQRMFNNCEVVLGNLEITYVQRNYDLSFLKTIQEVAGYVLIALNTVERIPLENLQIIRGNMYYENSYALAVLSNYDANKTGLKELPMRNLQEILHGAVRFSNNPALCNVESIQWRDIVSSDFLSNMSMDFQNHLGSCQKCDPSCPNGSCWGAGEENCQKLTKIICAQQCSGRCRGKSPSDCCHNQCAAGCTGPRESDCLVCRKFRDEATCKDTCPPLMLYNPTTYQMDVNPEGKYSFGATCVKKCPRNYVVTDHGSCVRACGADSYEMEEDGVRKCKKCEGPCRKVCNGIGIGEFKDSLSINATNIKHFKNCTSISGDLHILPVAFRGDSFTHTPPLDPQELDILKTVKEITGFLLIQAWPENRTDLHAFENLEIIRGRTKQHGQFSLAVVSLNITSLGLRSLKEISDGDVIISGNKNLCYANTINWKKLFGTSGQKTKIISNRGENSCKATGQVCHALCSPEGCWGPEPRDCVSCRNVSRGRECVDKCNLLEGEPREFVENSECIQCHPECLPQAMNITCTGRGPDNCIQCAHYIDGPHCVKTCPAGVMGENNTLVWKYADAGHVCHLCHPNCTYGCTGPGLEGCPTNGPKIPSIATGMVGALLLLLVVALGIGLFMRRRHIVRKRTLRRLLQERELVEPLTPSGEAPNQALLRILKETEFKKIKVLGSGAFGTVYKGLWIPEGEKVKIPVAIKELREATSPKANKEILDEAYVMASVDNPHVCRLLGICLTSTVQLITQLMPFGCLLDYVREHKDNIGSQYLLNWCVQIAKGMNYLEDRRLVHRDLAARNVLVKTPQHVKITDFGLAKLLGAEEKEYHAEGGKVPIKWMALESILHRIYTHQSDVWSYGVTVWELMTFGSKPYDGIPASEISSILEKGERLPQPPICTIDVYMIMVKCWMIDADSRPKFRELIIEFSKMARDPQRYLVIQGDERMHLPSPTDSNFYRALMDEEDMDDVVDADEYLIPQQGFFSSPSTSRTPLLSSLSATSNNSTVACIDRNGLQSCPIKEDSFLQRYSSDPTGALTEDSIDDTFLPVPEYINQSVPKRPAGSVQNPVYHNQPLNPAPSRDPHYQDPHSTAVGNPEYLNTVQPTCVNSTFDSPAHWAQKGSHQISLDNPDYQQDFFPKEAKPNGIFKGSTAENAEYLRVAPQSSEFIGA
T2 sequence (P00533 with tags, fused parts or gaps DEL746-750): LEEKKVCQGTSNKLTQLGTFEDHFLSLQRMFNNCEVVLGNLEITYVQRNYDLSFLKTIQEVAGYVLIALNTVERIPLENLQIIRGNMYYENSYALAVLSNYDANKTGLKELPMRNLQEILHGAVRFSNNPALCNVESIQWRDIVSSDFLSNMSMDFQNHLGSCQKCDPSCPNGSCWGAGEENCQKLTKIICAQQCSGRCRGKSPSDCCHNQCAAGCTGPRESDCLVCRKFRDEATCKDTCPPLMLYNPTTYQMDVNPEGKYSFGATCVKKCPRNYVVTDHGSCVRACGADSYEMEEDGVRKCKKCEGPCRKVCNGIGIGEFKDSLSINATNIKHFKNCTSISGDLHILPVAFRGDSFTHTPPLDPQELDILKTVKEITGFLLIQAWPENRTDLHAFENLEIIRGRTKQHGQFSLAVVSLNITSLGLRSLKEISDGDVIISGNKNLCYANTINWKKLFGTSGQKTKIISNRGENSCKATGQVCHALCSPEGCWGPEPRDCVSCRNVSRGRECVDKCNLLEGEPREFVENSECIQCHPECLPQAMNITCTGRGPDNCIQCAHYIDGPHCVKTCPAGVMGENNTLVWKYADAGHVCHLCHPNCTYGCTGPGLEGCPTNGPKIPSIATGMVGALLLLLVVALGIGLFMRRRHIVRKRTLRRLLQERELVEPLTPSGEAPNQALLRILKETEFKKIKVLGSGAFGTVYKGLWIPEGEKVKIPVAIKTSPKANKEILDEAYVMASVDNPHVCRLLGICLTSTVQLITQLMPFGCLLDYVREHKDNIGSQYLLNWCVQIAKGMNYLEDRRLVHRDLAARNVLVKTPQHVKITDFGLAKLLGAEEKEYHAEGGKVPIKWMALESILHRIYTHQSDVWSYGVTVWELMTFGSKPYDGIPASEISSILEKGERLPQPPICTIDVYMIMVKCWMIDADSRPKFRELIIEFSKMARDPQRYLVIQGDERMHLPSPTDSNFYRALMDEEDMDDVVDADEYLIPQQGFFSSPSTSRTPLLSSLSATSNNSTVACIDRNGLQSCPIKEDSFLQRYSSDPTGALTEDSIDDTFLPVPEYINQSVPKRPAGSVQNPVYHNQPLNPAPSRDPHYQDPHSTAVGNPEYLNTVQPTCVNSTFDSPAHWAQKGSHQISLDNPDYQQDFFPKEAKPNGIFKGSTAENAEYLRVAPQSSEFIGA

Compound: COc1cc2ncnc(Nc3ccc(F)c(Cl)c3)c2cc1OCCON1CCOCC1 [Compound 6, N-(3-Chloro-4-fluorophenyl)-7-methoxy-6-(2-(morpholinooxy)ethoxy)quinazolin-4-amine]
- Kd [1]: 0.6 nM
- Kd [2]: 0.3 nM
- IC50 [3]: 5 nM
- IC50 [4]: 4.2 nM
- IC50 [5]: 88 nM
- logD at 2 h, 1 µM [6]: 3.9
- solubility kinetic at 2 h [7]: 1 µM (≈ 0.449 µg/mL)
- Remaining Percentage ([8]; +Cofactors, 15 min): 49.30%
- Remaining Percentage ([8]; +Cofactors, 30 min): 28.74%
- Remaining Percentage ([8]; +Cofactors, 45 min): 20.85%
- Remaining Percentage ([8]; +Cofactors, 60 min): 14.00%
- Remaining Percentage ([8]; -Cofactors, 60 min): 89.19%
- half-life at 1 h, 1 µM ([8]; human, liver microsomes, read-out: LM t1/2): 21.6 min
- microsomal CLint at 1 h, 1 µM ([8]; human, liver microsomes, read-out: LMClint): 64 µL/min/mg
- half-life at 1 h, 1 µM ([9]; Sprague-Dawley, rat, liver microsomes, read-out: LM t1/2): 19.5 min
- microsomal CLint at 1 h, 1 µM ([9]; Sprague-Dawley, rat, liver microsomes, read-out: LMClint): 71 µL/min/mg
- Remaining Percentage ([9]; +Cofactors, 15 min): 50.62%
- Remaining Percentage ([9]; +Cofactors, 30 min): 25.81%
- Remaining Percentage ([9]; +Cofactors, 45 min): 17.98%
- Remaining Percentage ([9]; +Cofactors, 60 min): 11.88%
- Remaining Percentage ([9]; -Cofactors, 60 min): 109.68%
- Remaining Percentages ([10]; 15 min): 98.26%
- Remaining Percentages ([10]; 30 min): 102.87%
- Remaining Percentages ([10]; 60 min): 101.74%
- Remaining Percentages ([10]; 120 min): 97.90%
- t1/2 [10]: ∞
- Remaining Percentages ([11]; 15 min): 100.23%
- Remaining Percentages ([11]; 30 min): 99.35%
- Remaining Percentages ([11]; 60 min): 99.28%
- Remaining Percentages ([11]; 120 min): 104.21%
- t1/2 [11]: ∞
- efflux ratio at 2 h, 5 µM ([12]; Caco-2): 1.9
- efflux ratio at 2 h, 5 μM ([12]; Caco-2): 1.91
- recovery at 2 h, 5 μM ([12]; read-out: Recovery% (AP-BL)): 53.8%
- recovery at 2 h, 5 μM ([12]; read-out: Recovery% (BL-AP)): 60.3%
- Papp A→B at 2 h, 5 µM ([12]; Caco-2, 5 μM, 2 h): 5.6 ×10⁻⁶ cm/s
- Papp A→B at 2 h, 5 μM ([12]; Caco-2, 5 μM, 2 h): 5.59 ×10⁻⁶ cm/s
- Papp B→A at 2 h, 5 µM ([12]; Caco-2, 5 μM, 2 h): 10.7 ×10⁻⁶ cm/s
- Papp B→A at 2 h, 5 μM ([12]; Caco-2, 5 μM, 2 h): 10.7 ×10⁻⁶ cm/s
- enhancement in permeability compared with 1 [13]: 14 fold
- recovery at 2 h, 1 μM ([14]; read-out: Recovery% (AP-BL)): 51.6%
- recovery at 2 h, 1 μM ([14]; read-out: Recovery% (BL-AP)): 66.4%
- increase in permeability compared to 1 [15]: roughly 4 fold
- efflux ratio at 2 h, 1 µM [16]: 2
- efflux ratio at 2 h, 1 μM [16]: 1.99
- Papp A→B at 2 h, 1 µM ([16]; 1 μM, 2 h): 4.2 ×10⁻⁶ cm/s
- Papp A→B at 2 h, 1 μM ([16]; 1 μM, 2 h): 4.19 ×10⁻⁶ cm/s
- Papp B→A at 2 h, 1 µM ([16]; 1 μM, 2 h): 8.3 ×10⁻⁶ cm/s
- Papp B→A at 2 h, 1 μM ([16]; 1 μM, 2 h): 8.26 ×10⁻⁶ cm/s
- recovery at 6 h, 5 μM ([17]; human, human plasma): 101%
- remaining at 6 h, 5 μM ([17]; human, human plasma): 99.5%
- fraction unbound at 6 h, 5 μM [17, 27]: 0.0512
- fraction unbound at 6 h, 5 μM [17, 28]: 0.0512
- Kd ([18]; L858R): 0.8 nM
- binding and biochemical inhibition of activating mutant bearing EGFR ([18]; in words, Tables S1 and S3): single-digit nanomolar
- IC50 [19]: < 1 nM

Compound: COc1cc2ncnc(Nc3ccc(F)c(Cl)c3)c2cc1OCCCN1CCOCC1 [Gefitinib (1), Gefitinib, reference compound]
- logD at 2 h, 1 µM [6]: 3.7
- solubility kinetic at 2 h [7]: 4 µM (≈ 1.79 µg/mL)
- Remaining Percentage ([8]; +Cofactors, 15 min): 39.75%
- Remaining Percentage ([8]; +Cofactors, 30 min): 19.60%
- Remaining Percentage ([8]; +Cofactors, 45 min): 12.23%
- Remaining Percentage ([8]; +Cofactors, 60 min): 8.14%
- Remaining Percentage ([8]; -Cofactors, 60 min): 100.00%
- Remaining Percentage ([9]; +Cofactors, 15 min): 63.13%
- Remaining Percentage ([9]; +Cofactors, 30 min): 37.48%
- Remaining Percentage ([9]; +Cofactors, 45 min): 25.25%
- Remaining Percentage ([9]; +Cofactors, 60 min): 19.26%
- Remaining Percentage ([9]; -Cofactors, 60 min): 115.38%
- Remaining Percentages ([20]; 15 min): 97.55%
- Remaining Percentages ([20]; 30 min): 94.76%
- Remaining Percentages ([20]; 60 min): 73.38%
- Remaining Percentages ([20]; 90 min): 50.47%
- Remaining Percentages ([20]; 120 min): 39.53%
- half-life at 2 h, 1 µM ([20]; human, hepatocytes, read-out: HEP t1/2): 83.5 min
- Remaining Percentages ([21]; 15 min): 66.86%
- Remaining Percentages ([21]; 30 min): 59.92%
- Remaining Percentages ([21]; 60 min): 39.44%
- Remaining Percentages ([21]; 90 min): 21.69%
- Remaining Percentages ([21]; 120 min): 13.94%
- Remaining Percentages ([10]; 15 min): 103.40%
- Remaining Percentages ([10]; 30 min): 103.92%
- Remaining Percentages ([10]; 60 min): 101.33%
- Remaining Percentages ([10]; 120 min): 104.45%
- t1/2 [10]: ∞
- Remaining Percentages ([11]; 15 min): 100.11%
- Remaining Percentages ([11]; 30 min): 98.28%
- Remaining Percentages ([11]; 60 min): 95.04%
- Remaining Percentages ([11]; 120 min): 93.66%
- t1/2 [11]: ∞
- fraction unbound at 6 h, 5 μM ([17]; Sprague-Dawley, rat, plasma, 5 μM, read-out: fu,plasma% / %Unbound): 0.0249
- recovery at 6 h, 5 μM [17, 29]: 105%
- remaining at 6 h, 5 μM [17, 29]: 105%
- fraction unbound at 6 h, 5 μM ([17]; Sprague-Dawley, rat, rat plasma, read-out: %Bound (converted)): 0.0249
- recovery at 6 h, 5 μM ([17]; human, human plasma): 106%
- remaining at 6 h, 5 μM ([17]; human, human plasma): 98.8%
- fraction unbound at 6 h, 5 μM [17, 27]: 0.0766
- fraction unbound at 6 h, 5 μM [17, 28]: 0.0766
- recovery at 6 h, 5 μM ([22]; CD-1, mouse, mouse plasma): 99.4%
- remaining at 6 h, 5 μM ([22]; CD-1, mouse, mouse plasma): 98%
- fraction unbound at 6 h, 5 μM ([22]; CD-1, mouse, mouse plasma, read-out: %Bound (converted)): 0.0781
- fraction unbound at 6 h, 5 μM ([22]; CD-1, plasma, mouse, 5 μM, read-out: fu,plasma% / %Unbound): 0.0781
- recovery at 6 h, 5 μM ([23]; Sprague-Dawley (SD), rat brain homogenate): 99.7%
- fraction unbound at 6 h, 5 μM ([23]; Sprague-Dawley, brain homogenate, read-out: fu,brain% / %Unboundbrain): 0.006
- remaining at 6 h, 5 μM ([23]; Sprague-Dawley, rat brain homogenate): 105%
- fraction unbound at 6 h, 5 μM ([23]; Sprague-Dawley, rat brain homogenate, read-out: %Boundbrain (converted)): 0.006
- Kp,uu (AUC0−16h) [24]: 0.0092
- efflux status against common efflux transporters [25]: P-gp and BCRP Substrate

Compound: hydroxylamine
- pKa [26]: 5.9
